The numbers were not newly measured in patent publication US8865213B2, “Modified release pharmaceutical compositions” (USV Limited, priority 2009, dated 2014), which cites them from elsewhere.

Structures are written as SMILES.

For the compound `COC(=O)C1=C(C)NC(C)=C(C(=O)OCC(C)C)C1c1ccccc1[N+](=O)[O-]` (centres unmarked) [Nisoldipine, 3,5-pyridinedicarboxylic acid, 1,4-dihydro-2,6-dimethyl-4-(2-nitrophenyl)-, methyl 2-methyl-propyl ester], the Solubility in ethanol result (ethanol) is “soluble”. Where the note is “water”, the Solubility in water entry is reported as “practically insoluble”.
